Reference: patent US8129366B2, “VLA-4 inhibitory drug” (Daiichi Sankyo Company, Limited, priority 2005, dated 2012)
In brackets after ≈: the same amount, converted by molar mass.

Columns and labels:
[1] = Solubility test in first and second liquid of the Japanese Pharmacopoeia
Description: The solubilities of the substance under test in the first liquid (JP1, pH=1.2) of the Japanese Pharmacopoeia and the second liquid (JP2, pH=6.8) of the Japanese Pharmacopoeia, were evaluated.

hα4 and β1 integrins = biological target: T1, hα4 and β1 integrins (Homo sapiens, UniProt P05556+P13612); assay: In vitro inhibition of binding between CHO cells expressing hα4 and β1 integrins and Eu3+-hVCAM-1 D1D7-IgG; details: for Ki: CHO cells expressing hα4 and β1 integrins, Eu3+-hVCAM-1 D1D7-IgG ligand, without HSA; for IC50: in the presence of 3% human serum albumin (HSA final concentration 3%)
T1 construct: expressed in transfected cells; host or cells: CHO cells
Outline: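 Bound europium-labelled VCAM-1 D1D7-IgG on α4β1-expressing CHO cells was measured by time-resolved fluorescence after washing at 4 °C. Ligand (2 nM working dilution) and test compound, with or without 3% final HSA, were co-incubated for 1 h at room temperature in Mn²⁺-containing HEPES buffer, pH 7.5. IC50 came from % binding inhibition; Ki was calculated from ligand concentration and Scatchard Kd.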

[2] = first liquid of the Japanese Pharmacopoeia (JP1), pH 1.2, simulated gastric fluid, First liquid of Japanese Pharmacopoeia (μg/mL), JP1, pH=1.2
[3] = second liquid of the Japanese Pharmacopoeia (JP2), pH 6.8, aqueous buffer, Second liquid of Japanese Pharmacopoeia (μg/mL), JP2, pH=6.8

T1 sequence (P13612 34-1032): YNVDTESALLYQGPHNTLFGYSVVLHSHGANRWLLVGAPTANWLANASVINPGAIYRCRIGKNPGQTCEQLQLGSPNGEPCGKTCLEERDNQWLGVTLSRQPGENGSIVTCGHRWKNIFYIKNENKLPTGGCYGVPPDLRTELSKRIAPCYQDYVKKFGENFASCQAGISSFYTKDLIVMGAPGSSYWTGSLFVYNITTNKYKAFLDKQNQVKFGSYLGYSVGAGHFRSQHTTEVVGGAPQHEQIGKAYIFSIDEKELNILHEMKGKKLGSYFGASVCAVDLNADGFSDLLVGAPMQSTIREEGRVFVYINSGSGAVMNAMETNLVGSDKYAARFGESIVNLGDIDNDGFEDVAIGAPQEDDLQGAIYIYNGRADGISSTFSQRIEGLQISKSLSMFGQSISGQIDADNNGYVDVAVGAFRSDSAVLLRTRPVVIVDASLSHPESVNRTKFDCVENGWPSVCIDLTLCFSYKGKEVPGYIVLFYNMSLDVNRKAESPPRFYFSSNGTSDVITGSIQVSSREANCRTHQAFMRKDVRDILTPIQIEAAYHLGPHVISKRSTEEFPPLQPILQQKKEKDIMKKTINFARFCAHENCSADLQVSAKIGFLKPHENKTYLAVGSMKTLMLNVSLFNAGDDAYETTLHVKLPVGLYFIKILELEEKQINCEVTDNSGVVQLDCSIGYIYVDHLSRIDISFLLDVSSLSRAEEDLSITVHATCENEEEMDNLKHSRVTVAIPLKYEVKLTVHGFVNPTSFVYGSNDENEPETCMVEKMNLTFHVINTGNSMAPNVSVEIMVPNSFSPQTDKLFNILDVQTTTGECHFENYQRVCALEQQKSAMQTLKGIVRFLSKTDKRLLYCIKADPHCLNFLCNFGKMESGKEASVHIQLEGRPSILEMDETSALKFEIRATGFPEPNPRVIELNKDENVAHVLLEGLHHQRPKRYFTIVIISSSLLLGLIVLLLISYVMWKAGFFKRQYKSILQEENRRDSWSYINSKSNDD
T1 sequence (P05556 21-798): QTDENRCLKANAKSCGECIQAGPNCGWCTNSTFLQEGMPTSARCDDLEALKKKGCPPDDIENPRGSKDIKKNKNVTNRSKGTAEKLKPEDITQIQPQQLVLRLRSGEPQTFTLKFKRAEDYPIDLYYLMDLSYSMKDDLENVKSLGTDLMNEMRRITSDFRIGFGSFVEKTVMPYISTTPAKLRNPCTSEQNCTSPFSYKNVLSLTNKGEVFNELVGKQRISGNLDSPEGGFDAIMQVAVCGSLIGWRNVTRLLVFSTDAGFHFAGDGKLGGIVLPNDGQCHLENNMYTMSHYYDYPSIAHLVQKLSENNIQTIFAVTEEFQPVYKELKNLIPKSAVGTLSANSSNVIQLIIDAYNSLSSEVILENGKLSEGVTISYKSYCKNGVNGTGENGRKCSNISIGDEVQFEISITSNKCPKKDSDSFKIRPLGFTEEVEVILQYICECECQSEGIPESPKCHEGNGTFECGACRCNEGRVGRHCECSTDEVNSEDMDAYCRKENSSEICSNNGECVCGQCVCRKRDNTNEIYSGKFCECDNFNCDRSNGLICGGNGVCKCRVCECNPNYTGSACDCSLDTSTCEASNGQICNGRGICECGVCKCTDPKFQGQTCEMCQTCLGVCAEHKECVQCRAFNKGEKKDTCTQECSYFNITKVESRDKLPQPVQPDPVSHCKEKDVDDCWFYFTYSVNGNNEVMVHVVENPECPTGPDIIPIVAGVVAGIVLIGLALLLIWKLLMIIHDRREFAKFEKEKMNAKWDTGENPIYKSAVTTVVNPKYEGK

For C[C@@H]1CN([C@H]2C[C@@H](CO[C@H]3CC[C@H](C(=O)O)CC3)N(C(=O)Cc3ccc(NC(=O)c4nn(C)c5ccccc45)c(Cl)c3)C2)C[C@H](C)O1 [Example 88, Trans-4-[1-[[3-chloro-4-[(1-methyl-1H-indazol-3-ylcarbonyl)amino]phenyl]acetyl]-(4S)-(cis-2,6-dimethylmorpholin-4-yl)-(2S)-pyrrolidinylmethoxy]cyclohexanecarboxylic acid], which solubility [1, 2] is on record?
Its solubility is 1100 µg/mL (≈ 1650 µM).

What about the solubility [1, 3] of the same compound?
The solubility was 1300 µg/mL (≈ 1950 µM).

What about the Ki (hα4 and β1 integrins) of the same compound?
Its Ki is 1.5 nM.

And the IC50 (hα4 and β1 integrins)?
Its IC50 is 9 nM.

Which solubility [1, 2] does the source give for CC(C)N1CCN([C@H]2C[C@@H](CO[C@H]3CC[C@H](C(=O)O)CC3)N(C(=O)Cc3cc(Cl)c(NC(=O)c4cn(C)c5ccccc45)cc3Cl)C2)CC1 [Example 113, Trans-4-[1-[[2,5-dichloro-4-[(1-methyl-1H-indol-3-ylcarbonyl)amino]phenyl]acetyl]-(4S)-(4-isopropylpiperazin-1-yl)-(2S)-pyrrolidinylmethoxy]cyclohexanecarboxylic acid] here?
The solubility was 1000 µg/mL (≈ 1400 µM).

What about the solubility [1, 3] of the same compound?
Its solubility is 1000 µg/mL (≈ 1400 µM).

What about the Ki (hα4 and β1 integrins) of the same compound?
The Ki was 2.8 nM.

And the IC50 (hα4 and β1 integrins)?
Its IC50 is 9.5 nM.

With CO[C@H]1CN([C@H]2C[C@@H](CO[C@H]3CC[C@H](C(=O)O)CC3)N(C(=O)Cc3cc(Cl)c(NC(=O)c4cn(C)c5ccccc45)cc3Cl)C2)C[C@@H]1OC [Example 51, Trans-4-[1-[[2,5-dichloro-4-[(1-methyl-1H-indol-3-ylcarbonyl)amino]phenyl]acetyl]-(4S)-[(3S,4S)-dimethoxypyrrolidin-1-yl]-(2S)-pyrrolidinylmethoxy]cyclohexanecarboxylic acid] as the compound, how does the solubility [1, 2] read?
Its solubility is 1000 µg/mL (≈ 1400 µM).

And the solubility [1, 3]?
Its solubility is 1000 µg/mL (≈ 1400 µM).

And the Ki (hα4 and β1 integrins)?
Its Ki is 5.8 nM.

And the IC50 (hα4 and β1 integrins)?
Its IC50 is 18 nM.

With CC(=O)N[C@H]1CCN([C@H]2C[C@@H](CO[C@H]3CC[C@H](C(=O)O)CC3)N(C(=O)Cc3cc(Cl)c(NC(=O)c4csc5ccccc45)cc3F)C2)C1 [Example 66, Trans-4-[1-[[4-[(benzo[b]thiophen-3-ylcarbonyl)amino]-5-chloro-2-fluorophenyl]acetyl]-(4S)-[(3S)-acetamidopyrrolidin-1-yl]-(2S)-pyrrolidinylmethoxy]cyclohexanecarboxylic acid] as the compound, how does the solubility [1, 2] read?
The solubility was greater than 2000 µg/mL.

And the solubility [1, 3]?
The solubility was greater than 2000 µg/mL.

What about the Ki (hα4 and β1 integrins) of the same compound?
Its Ki is 0.42 nM.

What about the IC50 (hα4 and β1 integrins) of the same compound?
Its IC50 is 14 nM.

For CO[C@@H]1CCN([C@H]2C[C@@H](CO[C@H]3CC[C@H](C(=O)O)CC3)N(C(=O)Cc3cc(Cl)c(NC(=O)c4csc5ccccc45)cc3F)C2)C1 [Example 32, Trans-4-[1-[[4-[(benzo[b]thiophen-3-ylcarbonyl)amino]-5-chloro-2-fluorophenyl]acetyl]-(4S)-[(3R)-methoxypyrrolidin-1-yl]-(2S)-pyrrolidinylmethoxy]cyclohexanecarboxylic acid], which solubility [1, 2] is on record?
The solubility was 1700 µg/mL (≈ 2530 µM).

And the solubility [1, 3]?
The solubility was 1690 µg/mL (≈ 2510 µM).

And the Ki (hα4 and β1 integrins)?
Its Ki is 0.74 nM.

What about the IC50 (hα4 and β1 integrins) of the same compound?
The IC50 was 3.5 nM.

Which “Solubility, Second liquid of Japanese Pharmacopoeia” value ([1]; JP2, pH=6.8) does the source give for CN(C)C(=O)[C@@H]1CCCN1[C@H]1C[C@@H](CO[C@H]2CC[C@H](C(=O)O)CC2)N(C(=O)Cc2cc(Cl)c(NC(=O)c3csc4ccccc34)cc2F)C1 [Example 42] here?
Its value is 1931 µg/mL.

What about the solubility [1, 2] of the same compound?
The solubility was greater than 2000 µg/mL.

What about the solubility [1, 3] of the same compound?
Its solubility is greater than 2000 µg/mL.

And the Ki (hα4 and β1 integrins)?
The Ki was 0.32 nM.

And the IC50 (hα4 and β1 integrins)?
Its IC50 is 1.1 nM.

For CO[C@H]1CN([C@H]2C[C@@H](CO[C@H]3CC[C@H](C(=O)O)CC3)N(C(=O)Cc3cc(Cl)c(NC(=O)c4coc5ccccc45)cc3Cl)C2)C[C@@H]1OC [Example 54, Trans-4-[1-[[4-[(benzo[b]furan-3-ylcarbonyl)amino]-2,5-dichlorophenyl]acetyl]-(4S)-[(3S,4S)-dimethoxypyrrolidin-1-yl]-(2S)-pyrrolidinylmethoxy]cyclohexanecarboxylic acid], which solubility [1, 2] is on record?
Its solubility is 1000 µg/mL (≈ 1420 µM).

And the solubility [1, 3]?
The solubility was 1000 µg/mL (≈ 1420 µM).

And the Ki (hα4 and β1 integrins)?
The Ki was 3.4 nM.

And the IC50 (hα4 and β1 integrins)?
Its IC50 is 25 nM.
